No end group written: not given here.
Tests used:
Assay type in all cases: in vivo, Sprague-Dawley rats
[1] = test system: rats with mild-moderate TBI; assay: BrdU immunostaining, cell proliferation after controlled cortical impact TBI; settings: 3 mg/kg i.v. at 24 h and 48 h post injury; examined 25 days after TBI; vs saline controls, p<0.05, n=7
Procedure: BrdU, an analog of thymidine, can be incorporated into the newly synthesized DNA of replicating cells during the S phase of the cell cycle, substituting for thymidine during DNA replication. BrdU immunostaining is commonly used to detect cell proliferation. To determine the effect of SEQ ID NO. 5 (3 mg/kg, i.v.) or saline on cell proliferation, BrdU (100mg/kg) was injected i.p. daily starting at day 1 after mild-moderate TBI and continued for 10 days after TBI to label newly generated cells. Twenty-five days after TBI, the animals were anesthetized and sacrificed. The brains were fixed in 4% paraformaldehyde and cut into seven equally spaced 2-mm coronal blocks using a rat brain matrix. […] 5-treated rats examined at 25 days after TBI, compared to the saline controls. […]
A large part of the functional recovery that occurs after brain injury is due to neurogenesis, and brain plasticity caused by anatomical and functional reorganization of the CNS. […] 5 on neurogenesis, the brain blocks containing the hippocampus were processed for vibratome sections (100 μm) followed by double fluorescence staining for endogenous cellular proliferation {BrdU positive cells (red) and MAP 2 (green) to identify newborn neurons in the ipsilateral dentate gyrus (DG) of the hippocampus. […] Quantitative measurements of immunostaining were performed by an observer blinded to the individual treatment status of the animals. […]

[2] = test system: rats with mild-moderate TBI; assay: BrdU/MAP-2 double fluorescence staining, neurogenesis after controlled cortical impact TBI; settings: 3 mg/kg i.v. at 24 h and 48 h post injury; 25 days post injury; vs saline controls, p<0.05, n=7
Excerpt: (§1) A large part of the functional recovery that occurs after brain injury is due to neurogenesis, and brain plasticity caused by anatomical and functional reorganization of the CNS. To determine the effect of SEQ ID NO. 5 on neurogenesis, the brain blocks containing the hippocampus were processed for vibratome sections (100 μm) followed by double fluorescence staining for endogenous cellular proliferation {BrdU positive cells (red) and MAP 2 (green) to identify newborn neurons in the ipsilateral dentate gyrus (DG) of the hippocampus. Five sections with 100-μm intervals from the dorsal dentate gyms were used for immunohistochemical staining with the same antibody. Sections were blocked in a Tris-buffered saline solution containing 5% normal goat serum, 1% BSA and 0.05% Tween-20. […] Quantitative measurements of immunostaining were performed by an observer blinded to the individual treatment status of the animals. […] The cells with BrdU that clearly localized to the nucleus were counted as BrdU-positive cells. […] The fluorescent images were analyzed with a Bio-Rad MRC 1024 (argon and krypton) laser-scanning confocal imaging system mounted onto a Zeiss microscope (Bio-Rad, Cambridge, Mass.). […]
A controlled cortical impact (CCI) device was used to induce mild-moderate TBI. […] Velocity was measured with a linear velocity displacement transducer. […]

[3] = test system: rats with mild-moderate TBI; assay: Endothelial barrier antigen (EBA) staining, vascular density after controlled cortical impact TBI; settings: 3 mg/kg i.v. at 24 h and 48 h post injury; 25 days after TBI; vs saline-treated rats, p<0.05, n=7
Excerpt: as §1, with “antibody.” for “antibody. Sections were blocked in a Tris-buffered saline solution containing 5% normal goat serum, 1% BSA and 0.05% Tween-20.”
Endothelial barrier antigen (EBA)-staining has been used to identify vascular structure in the brain after ischemic brain injury. […] 5-therapy on vessel proliferation and vascular density, quantitative measurement of Endothelial Barrier Antigen (EBA) staining was performed. […]

[4] = test system: rats with mild-moderate TBI; assay: Modified neurological severity score (mNSS) after controlled cortical impact TBI; settings: 3 mg/kg i.v. at 24 h and 48 h post injury; Days 14-25 after TBI; vs saline-treated group, P<0.05
Procedure: (§2) A controlled cortical impact (CCI) device was used to induce mild-moderate TBI. Adult male (280-300 g) Sprague-Dawley rats (Harlan: Indianapolis, Ind.) were anesthetized intraperitoneally with xylazine (10 mg/kg body weight) and ketamine (40 mg/kg body weight). Rectal temperature was maintained at 37° C. using a feedback-regulated water-heating pad. The surgical area of the skull was prepared using germicidal povidone-iodine scrub followed by a 70% isopropyl alcohol rinse combinations, being careful to scrub from the center of the surgical site toward the periphery. Rats were placed in a stereotactic frame. […] Velocity was measured with a linear velocity displacement transducer. […] Neurological functional outcome was measured by the modified neurological severity score (mNSS), Morris Water Maze (MWM) and foot-fault test. mNSS is a composite of the motor (muscle status, abnormal movement), sensory (visual, tactile and proprioceptive) and reflex tests. […] If the animal reached the platform within 90 sec, the percentage of time traveled within the NE (correct) quadrant was calculated relative to the total amount of time spent swimming before reaching the platform and employed for statistical analysis. […] Rats were monitored continuously while in the tank. […] When animals inaccurately place a limb, the limb falls through one of the openings in the grid, which is counted as a foot fault. […]

[5] = test system: rats with mild-moderate TBI; assay: Morris Water Maze (MWM) after controlled cortical impact TBI; settings: 3 mg/kg i.v. at 24 h and 48 h post injury; Days 23 to 25 post-injury; vs saline-treated group, P<0.05
Procedure: as §2

[6] = test system: rats with mild-moderate TBI; assay: Modified foot-fault test after controlled cortical impact TBI; settings: 3 mg/kg i.v. at 24 h and 48 h post injury; up to 25 days after TBI; vs control group
Procedure: as §2

DPMSSTYIEELGKREVTIPPKYVALLPAVLLALLAP [SEQ ID NO. 5]
number of BrdU-positive cells in the ipsilateral cortex and hippocampus [1]: significantly increased
number of newborn neurons (BrdU/MAP-2 positive) in the ipsilateral DG, per mm^2 [2]: significantly increased
density (vessels/mm2) of EBA positive vessels in the injured cortex area [3]: significantly increased
sensorimotor scores (mNSS) [4]: significantly improved
spatial learning and memory retention (percentage of time spent in the correct quadrant, MWM) [5]: significant improvement
neurological function assessed by the footfault test [6]: no significant improvement
